{"source": "the NIST ThermoML archive (doi:10.1021/je034144f)", "conditions": "Liquid, Ebulliometric method (Recirculating still)", "note": "Numbers after ± are expanded uncertainties.", "data": [{"smiles": "CC#N", "note": "[acetonitrile]", "values": [{"measurement": "vapor or sublimation pressure", "setting": "277.92 K", "value": "4.323 ± 0.011", "unit": "kPa"}, {"measurement": "vapor or sublimation pressure", "setting": "278.62 K", "value": "4.49 ± 0.01", "unit": "kPa"}, {"measurement": "vapor or sublimation pressure", "setting": "281.57 K", "value": "5.247 ± 0.012", "unit": "kPa"}, {"measurement": "vapor or sublimation pressure", "setting": "285.38 K", "value": "6.385 ± 0.012", "unit": "kPa"}, {"measurement": "vapor or sublimation pressure", "setting": "287.67 K", "value": "7.165 ± 0.013", "unit": "kPa"}, {"measurement": "vapor or sublimation pressure", "setting": "290.65 K", "value": "8.296 ± 0.013", "unit": "kPa"}, {"measurement": "vapor or sublimation pressure", "setting": "292.75 K", "value": "9.182 ± 0.014", "unit": "kPa"}, {"measurement": "vapor or sublimation pressure", "setting": "295.78 K", "value": "10.6 ± 0.015", "unit": "kPa"}, {"measurement": "vapor or sublimation pressure", "setting": "300.82 K", "value": "13.37 ± 0.016", "unit": "kPa"}, {"measurement": "vapor or sublimation pressure", "setting": "303.81 K", "value": "15.27 ± 0.018", "unit": "kPa"}, {"measurement": "vapor or sublimation pressure", "setting": "309.64 K", "value": "19.64 ± 0.021", "unit": "kPa"}, {"measurement": "vapor or sublimation pressure", "setting": "315.43 K", "value": "24.97 ± 0.024", "unit": "kPa"}, {"measurement": "vapor or sublimation pressure", "setting": "321.12 K", "value": "31.31 ± 0.027", "unit": "kPa"}, {"measurement": "vapor or sublimation pressure", "setting": "325.02 K", "value": "36.39 ± 0.032", "unit": "kPa"}, {"measurement": "vapor or sublimation pressure", "setting": "331.27 K", "value": "45.91 ± 0.036", "unit": "kPa"}, {"measurement": "vapor or sublimation pressure", "setting": "336.41 K", "value": "55.17 ± 0.042", "unit": "kPa"}, {"measurement": "vapor or sublimation pressure", "setting": "341.18 K", "value": "65.07 ± 0.048", "unit": "kPa"}, {"measurement": "vapor or sublimation pressure", "setting": "345.57 K", "value": "75.44 ± 0.05", "unit": "kPa"}, {"measurement": "vapor or sublimation pressure", "setting": "349.33 K", "value": "85.31 ± 0.059", "unit": "kPa"}, {"measurement": "vapor or sublimation pressure", "setting": "352.88 K", "value": "95.59 ± 0.063", "unit": "kPa"}, {"measurement": "vapor or sublimation pressure", "setting": "354.55 K", "value": "100.75 ± 0.068", "unit": "kPa"}, {"measurement": "vapor or sublimation pressure", "setting": "354.67 K", "value": "101.12 ± 0.07", "unit": "kPa"}, {"measurement": "vapor or sublimation pressure", "setting": "357.56 K", "value": "110.61 ± 0.073", "unit": "kPa"}, {"measurement": "vapor or sublimation pressure", "setting": "360.94 K", "value": "122.63 ± 0.079", "unit": "kPa"}, {"measurement": "vapor or sublimation pressure", "setting": "361.61 K", "value": "125.13 ± 0.079", "unit": "kPa"}, {"measurement": "vapor or sublimation pressure", "setting": "368.97 K", "value": "155.33 ± 0.089", "unit": "kPa"}, {"measurement": "vapor or sublimation pressure", "setting": "371.74 K", "value": "168.12 ± 0.099", "unit": "kPa"}, {"measurement": "vapor or sublimation pressure", "setting": "373.17 K", "value": "175.04 ± 0.11", "unit": "kPa"}, {"measurement": "vapor or sublimation pressure", "setting": "378.81 K", "value": "204.59 ± 0.12", "unit": "kPa"}, {"measurement": "vapor or sublimation pressure", "setting": "384.11 K", "value": "235.79 ± 0.14", "unit": "kPa"}, {"measurement": "vapor or sublimation pressure", "setting": "394.29 K", "value": "306.28 ± 0.16", "unit": "kPa"}, {"measurement": "vapor or sublimation pressure", "setting": "405.24 K", "value": "399.5 ± 0.2", "unit": "kPa"}, {"measurement": "vapor or sublimation pressure", "setting": "415.21 K", "value": "502.67 ± 0.24", "unit": "kPa"}, {"measurement": "vapor or sublimation pressure", "setting": "423.68 K", "value": "605.6 ± 0.28", "unit": "kPa"}, {"measurement": "vapor or sublimation pressure", "setting": "431.12 K", "value": "708.99 ± 0.31", "unit": "kPa"}, {"measurement": "vapor or sublimation pressure", "setting": "437.3 K", "value": "804.86 ± 0.35", "unit": "kPa"}, {"measurement": "vapor or sublimation pressure", "setting": "443.5 K", "value": "910.82 ± 0.38", "unit": "kPa"}, {"measurement": "vapor or sublimation pressure", "setting": "449.6 K", "value": "1025.5 ± 0.42", "unit": "kPa"}, {"measurement": "vapor or sublimation pressure", "setting": "455.74 K", "value": "1152 ± 0.46", "unit": "kPa"}, {"measurement": "vapor or sublimation pressure", "setting": "461.87 K", "value": "1290.2 ± 0.51", "unit": "kPa"}, {"measurement": "vapor or sublimation pressure", "setting": "468.37 K", "value": "1450.3 ± 0.55", "unit": "kPa"}, {"measurement": "vapor or sublimation pressure", "setting": "474.05 K", "value": "1602.6 ± 0.6", "unit": "kPa"}, {"measurement": "vapor or sublimation pressure", "setting": "479.15 K", "value": "1749.8 ± 0.65", "unit": "kPa"}, {"measurement": "vapor or sublimation pressure", "setting": "484.77 K", "value": "1923.9 ± 0.7", "unit": "kPa"}, {"measurement": "vapor or sublimation pressure", "setting": "490.37 K", "value": "2110.8 ± 0.76", "unit": "kPa"}, {"measurement": "vapor or sublimation pressure", "setting": "495.75 K", "value": "2303.5 ± 0.81", "unit": "kPa"}, {"measurement": "vapor or sublimation pressure", "setting": "501.48 K", "value": "2523.7 ± 0.88", "unit": "kPa"}, {"measurement": "vapor or sublimation pressure", "setting": "506.92 K", "value": "2748 ± 0.94", "unit": "kPa"}, {"measurement": "vapor or sublimation pressure", "setting": "512.61 K", "value": "2999.2 ± 1", "unit": "kPa"}, {"measurement": "vapor or sublimation pressure", "setting": "518.01 K", "value": "3254.1 ± 1.1", "unit": "kPa"}, {"measurement": "vapor or sublimation pressure", "setting": "523.15 K", "value": "3512.9 ± 1.1", "unit": "kPa"}, {"measurement": "vapor or sublimation pressure", "setting": "527.79 K", "value": "3760.4 ± 1.2", "unit": "kPa"}, {"measurement": "vapor or sublimation pressure", "setting": "532.08 K", "value": "4001.5 ± 1.3", "unit": "kPa"}, {"measurement": "vapor or sublimation pressure", "setting": "535.03 K", "value": "4174.6 ± 1.3", "unit": "kPa"}]}]}
